Consider 23 compounds from patent US20220340566A1, “BENZYL AMINE-CONTAINING 5,6-HETEROAROMATIC COMPOUNDS USEFUL AGAINST MYCOBACTERIAL INFECTION” (priority 2019, published 2022).

A short description of series [1]: Metabolic stability test in pooled human liver microsomes. Type of series: in vitro ADME. The note with it: human liver microsomes 0.5 mg protein/mL, 1 mmol/L NADPH, 37° C., 30 minutes. In short, it runs like this:
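Remaining-rate readout: parent compound left after 30 min versus 0 min (set as 100%), measured by LC/MS/MS or SPE/MS. Oxidative reaction ran at 37° C. with 1 mmol/L NADPH, 0.5 mg protein/mL pooled human microsomes, 50 mmol/L Tris-HCl pH 7.4 buffer.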

Series [2] deals with Mycobacterium avium ATCC700898. The experiment in a line: Determination of IC85 against M. avium (resazurin fluorescence). Type of series: cell-based. The note with it: Mycobacterium avium. (In general: The colour change of resazurin is a common sign of viable cells or microbes.)
The mark [3] stands for this setting: ATCC700898, M. avium ATCC700898, CAMHB medium, 37° C., 3 days incubation then resazurin, fluorescence one day later, read-out: IC85.

Read-outs that look alike come from different tables or passages of the source.

On to `Cc1ccn2c(C(=O)NCc3ccc(N4CCN(c5ccc(OC(F)(F)F)cc5)[C@@H](C)C4)cc3)c(C)nc2c1` [Compound I-3-28], for which, in series [1], the “MS_h_% (remaining amount of compound after reaction, 0 minute = 100%)” value was determined as 75.4%. For the same compound, in series [2] (setting [3]), the IC85 was 36 nM.
`Cc1cn2c(C(=O)NCc3ccc(N4CCN(c5ccc(OC(F)(F)F)cc5)[C@@H](C)C4)c(Cl)c3)c(C)nc2s1.Cl` [Compound I-3-29]: in series [1], the “MS_h_% (remaining amount of compound after reaction, 0 minute = 100%)” value came to 75.1%. In addition, in series [2] (setting [3]), the IC85 is 61 nM.
On to `Cc1cn2c(C(=O)NCc3ccc(-c4ccc(OCC(F)(F)F)cc4)c(F)c3)c(C)nc2s1` [Compound I-3-30], for which the “MS_h_% (remaining amount of compound after reaction, 0 minute = 100%)” value in series [1] stood at 75.1%. Besides, the IC85 in series [2] (setting [3]) is 31 nM.
In the case of `Cc1cn2c(C(=O)NCc3ccc(C4CCN(c5ccc(OC(F)(F)F)cc5)CC4)c(F)c3)c(C)nc2s1` [Compound I-3-31], in series [1], the “MS_h_% (remaining amount of compound after reaction, 0 minute = 100%)” value was 73.9%. In addition, the IC85 in series [2] (setting [3]) turned out to be 330 nM.
In the case of `Cc1cn2c(C(=O)NCc3ccc(N4CCN(c5ccc(OC(F)(F)F)cc5)[C@@H](C)C4)c(F)c3)c(C)nc2s1` [Compound I-3-32], the “MS_h_% (remaining amount of compound after reaction, 0 minute = 100%)” value in series [1] stood at 72.6%. The IC85 in series [2] (setting [3]) was found to be 820 nM.
For the compound `Cc1ccc2nc(C)c(C(=O)NCc3ccc(-c4ccc(C(F)(F)F)cc4)cc3)n2c1` [Compound I-3-33], the “MS_h_% (remaining amount of compound after reaction, 0 minute = 100%)” value in series [1] is 72.6%. In addition, the IC85 in series [2] (setting [3]) amounted to 2.2 nM.
For `Cc1ccn2c(C(=O)NCc3ccc(C4CCN(C5CN(CC(F)(F)F)C5)CC4)c(F)c3)c(C)nc2c1` [Compound I-3-34], in that order: 71.9% and 610 nM.
With `[2H]c1c(C([2H])([2H])[2H])c([2H])n2c(C(=O)NCc3ccc(S(F)(F)(F)(F)F)cc3)c(C)nc2c1[2H]` [Compound I-3-35], in series [1], the “MS_h_% (remaining amount of compound after reaction, 0 minute = 100%)” value is 71.3%. The IC85 in series [2] (setting [3]) worked out at 110 nM.
As for `CCc1nc2cc(F)ccn2c1C(=O)NCc1ccc(-n2cc3c(n2)CN(c2ccc(OC(F)(F)F)cc2)C3)c(F)c1.Cl` [Compound I-3-36], in series [1], the “MS_h_% (remaining amount of compound after reaction, 0 minute = 100%)” value turned out to be 69%. In addition, the IC85 in series [2] (setting [3]) was determined as 200 nM.
On to `Cc1nc2ccc(Br)cn2c1C(=O)NCc1ccc(N2CCC(c3ccc(F)cc3)CC2)cc1` [Compound I-3-37], for which, in series [1], the “MS_h_% (remaining amount of compound after reaction, 0 minute = 100%)” value was 68%. Moreover, the IC85 in series [2] (setting [3]) turned out to be 16 nM.
For `CC1=CN2C(=NC(C)C2C(=O)NCc2ccc3c(c2)OCCO3)C=C1` (stereo not shown) [Compound I-3-38], the “MS_h_% (remaining amount of compound after reaction, 0 minute = 100%)” value in series [1] is 67.7%. In addition, the IC85 in series [2] (setting [3]) was 860 nM.
Turning to `[2H]c1c(C([2H])([2H])[2H])c([2H])n2c(C(=O)NCc3cc(F)ccc3F)c(C)nc2c1[2H]` [Compound I-3-39], in series [1], the “MS_h_% (remaining amount of compound after reaction, 0 minute = 100%)” value is 67.2%. For the same compound, the IC85 in series [2] (setting [3]) came out at 800 nM.
On to `CCc1nc2cc(C)ccn2c1C(=O)NCc1ccc(Oc2cccc(C(F)(F)F)c2)cc1` [Compound I-3-40], for which the “MS_h_% (remaining amount of compound after reaction, 0 minute = 100%)” value in series [1] amounted to 66%. The IC85 in series [2] (setting [3]) was determined as 590 nM.
In the case of `Cl.O=C(NCc1ccc(OC2CCC(Oc3ccc(OC(F)(F)F)cc3)CC2)c(F)c1)c1cnc2ccc(Cl)cn12` (stereo not shown) [Compound I-3-41], the “MS_h_% (remaining amount of compound after reaction, 0 minute = 100%)” value in series [1] was 65.4%. Besides, the IC85 in series [2] (setting [3]) worked out at 150 nM.
For `Cc1ccn2c(C(=O)NCc3ccc(N4CCN(CC(F)F)CC4)c(F)c3)cnc2c1` [Compound I-3-42], in that order: 64.6% and 930 nM.
For `Cc1cn2c(C(=O)NCc3ccc(N4CC5(CCN(c6ccc(C(F)(F)F)cc6)CC5)C4)c(F)c3)c(C)nc2s1` [Compound I-3-43], the “MS_h_% (remaining amount of compound after reaction, 0 minute = 100%)” value in series [1] is 64.1%. Further, the IC85 in series [2] (setting [3]) was 150 nM.
For `Cc1ccc2nc(C)c(C(=O)NCc3ccc(S(F)(F)(F)(F)F)cc3)n2c1` [Compound I-3-44], in that order: 63.9% and 110 nM.
On to `CCc1nc2ccc(Cl)cn2c1C(=O)NCc1ccc(-n2cc3c(n2)CN(c2ccc(OC(F)(F)F)cc2)C3)c(F)c1.Cc1ccc(S(=O)(=O)O)cc1` [Compound I-3-45], for which the “MS_h_% (remaining amount of compound after reaction, 0 minute = 100%)” value in series [1] is on record as 63.2%. The compound further had an IC85 in series [2] (ATCC700898) of 4.6 nM.
As to `Cc1cn2c(C(=O)NCc3ccc(Oc4cccc(C(F)(F)F)c4)cc3)c(C)nc2s1` [Compound I-3-46], the “MS_h_% (remaining amount of compound after reaction, 0 minute = 100%)” value in series [1] came to 63.1%. Further, the IC85 in series [2] (setting [3]) was found to be 610 nM.
Turning to `CCc1nc2ccc(Cl)cn2c1C(=O)NCc1ccc(-n2cc3c(n2)CN(c2ccc(OC(F)(F)F)cc2)C3)c(F)c1.Cl` [Compound I-3-47], the “MS_h_% (remaining amount of compound after reaction, 0 minute = 100%)” value in series [1] came out at 62%. Besides, the IC85 in series [2] (setting [3]) came to 5.1 nM.
Turning to `Cc1nc2cnccn2c1C(=O)NCc1ccc(N2CCN(c3ccc(OC(F)(F)F)cc3)CC2)c(F)c1` [Compound I-3-48], in series [1], the “MS_h_% (remaining amount of compound after reaction, 0 minute = 100%)” value was 60.4%. In series [2] (setting [3]), the IC85 was 660 nM.
Take `Cc1ccn2c(C(=O)NCc3ccc(O[C@H]4CCN(c5ccc(OC(F)(F)F)cc5)C4)c(F)c3)c(C)nc2c1` [Compound I-3-49]: in series [1], the “MS_h_% (remaining amount of compound after reaction, 0 minute = 100%)” value is listed as 60.2%. For the same compound, the IC85 in series [2] (setting [3]) is 500 nM.
For `COc1ccn2nc(C)c(C(=O)NCc3ccc(N4CCN(c5ccc(OC(F)(F)F)cc5)[C@@H](C)C4)cc3)c2c1` [Compound I-3-50], in that order: 58.5% and 5.8 nM.
